According to ChEMBL document CHEMBL1130168, “Synthesis and evaluation of novel rhodacyanine dyes that exhibit antitumor activity” (J Med Chem, 1997):

Columns and labels:
[1] = tested on: MIA PaCa-2; experiment: Inhibitory concentration of compound against growth of human pancreatic carcinoma cells; assay type: functional, cell-based
[2] = tested on: CX-1; experiment: Inhibitory concentration against growth of human colon carcinoma cells; assay type: functional, cell-based
[3] = Selectivity ratio is IC50 of Human colon carcinoma cells to that of Monkey normal kidney epithelial cells; assay type: functional, Epithelial cell
[4] = tested on: LOX IMVI; experiment: Inhibitory concentration of compound against growth of human melanoma cells; assay type: functional, cell-based
[5] = tested on: Mus musculus; experiment: 5 mg/kg of compound was administered IP on days 1,5,8,12 to LOX tumor bearing nude mice and the ratio of median survival time of treated to control was reported; assay type: functional
[6] = tested on: Mus musculus; experiment: 5 mg/kg of compound was administered IP on days 1,5,7 to CX-1 tumor bearing nude mice and the inhibition ratio was reported; assay type: functional
[7] = tested on: MCF7; experiment: Inhibitory concentration of compound against growth of human breast carcinoma cells; assay type: functional, cell-based
[8] = tested on: Mus musculus; experiment: 5 mg/kg of compound was administered IP on days 1,3,7,10,16 to OVCARIII tumor bearing nude mice and the ratio of median survival time of treated to control was reported
[9] = tested on: Bladder carcinoma cell; experiment: Inhibitory concentration of compound against growth of human bladder carcinoma cells; assay type: functional, cell-based
[10] = tested on: CV-1; experiment: Inhibitory concentration against growth of monkey normal kidney epithelial cells as a measure of compound toxicity; assay type: functional, cell-based, Cercopithecidae; settings: Chlorocebus aethiops
[11] = tested on: Mus musculus; experiment: 4 mg/kg of compound was administered IP on days 1,2,4,5,7,8,10 to LOX tumor bearing nude mice and the ratio of median survival time of treated to control was reported; assay type: functional; settings: at 4 mg/kg
[12] = tested on: Mus musculus; experiment: 2 mg/kg of compound was administered IP on days 1,2,4,5,7,8,10 to LOX tumor bearing nude mice and the ratio of median survival time of treated to control was reported; assay type: functional; settings: at 2 mg/kg
[13] = tested on: LOX IMVI; experiment: Inhibitory concentration of compound against growth of human melanoma cell cells; assay type: functional, cell-based
[14] = tested on: Mus musculus; experiment: 1.5 mg/kg of compound was administered IP on days 1,3,4,7,9 to LOX tumor bearing nude mice and the ratio of median survival time of treated to control was reported; assay type: functional
[15] = tested on: Mus musculus; experiment: 5 mg/kg of compound was administered IP on days 1,3,7,10,16 to […] tumor bearing nude mice and the ratio of median survival time of treated to control was reported; assay type: functional; settings: at 5 mg/kg
[16] = tested on: Mus musculus; experiment: 5 mg/kg of compound was administered IP on days 1,5,8,12,15 to LOX tumor bearing nude mice and the ratio of median survival time of treated to control was reported; assay type: functional; settings: at 5 mg/kg
[17] = Homo sapiens, Bladder carcinoma cell

Structure (SMILES)	IC50 [2]	Ratio [3]	IC50 [10]	also measured
CC[n+]1c(/C=c2\s/c(=C3/Sc4ccccc4N3C)c(=O)n2-c2ccccc2)sc2ccccc21.Cc1ccc(S(=O)(=O)[O-])cc1	10 nM	220	2200 nM	IC50 ([1]; Homo sapiens, MIA PaCa-2): 40 nM; IC50 [4]: 40 nM; T/C [5]: 183%; TI [6]: 42%; IC50 ([7]; Homo sapiens, MCF7): 60 nM; T/C [8]: >300%; IC50 [9, 17]: 40 nM
CC[n+]1c(/C=c2\s/c(=C\Nc3ccccc3)c(=O)n2-c2ccccc2)sc2ccccc21.[Br-]	1500 nM	1	1500 nM	
CCN1/C(=C/C=C(Cl)/C=C/c2sc3ccc4ccccc4c3[n+]2CC)Sc2ccc3ccccc3c21.Cc1ccc(S(=O)(=O)[O-])cc1	60 nM	2	100 nM	
CCN1/C(=C/C=c2/c(=O)s/c(=C/c3sc4ccccc4[n+]3CC)n2C)Oc2ccccc21.[I-]	70 nM	49	3400 nM	
CCN1C(=O)CS/C1=C\c1sc2ccccc2[n+]1CC.[Br-]	1300 nM	30	38900 nM	
CC(=O)[O-].CCn1c(=O)/c(=C2\Sc3ccccc3N2C)s/c1=C\c1sc2ccccc2[n+]1CC				T/C [11]: 163%; IC50 ([1]; Homo sapiens, MIA PaCa-2): 60 nM; T/C [12]: 156%; IC50 ([7]; mcf7): 400 nM; IC50 [13]: 10 nM; IC50 [9, 17]: 60 nM
CC[n+]1c(/C=C2\SCC(=O)N2c2ccccc2)sc2ccccc21.[Br-]	2300 nM	20	46100 nM	
CCn1c(=O)/c(=C2\Sc3ccccc3N2C)n(CC)/c1=C\c1sc2ccccc2[n+]1CC.[I-]	1300 nM	20	25400 nM	
CCN1/C(=C/C=c2\s/c(=C\c3sc4ccccc4[n+]3CC)n(C)c2=O)Oc2ccccc21.[I-]	30 nM	57	1700 nM	
CC[n+]1c(/C=c2\s/c(=C\C=C\Nc3ccccc3)c(=O)n2-c2ccccc2)sc2ccccc21.[I-]	800 nM	12	9800 nM	
CCN1/C(=C/C=c2\s/c(=C\c3sc4ccccc4[n+]3CC)n(-c3ccccc3)c2=O)Sc2ccccc21.[I-]	60 nM	50	3000 nM	IC50 ([1]; Homo sapiens, MIA PaCa-2): 70 nM; IC50 [4]: 40 nM; IC50 ([7]; Homo sapiens, MCF7): 40 nM; T/C [14]: 256%; IC50 [9, 17]: 400 nM
CCn1c(=O)c(=C2CCCCC2)s/c1=C\c1sc2ccccc2[n+]1CC.Cc1ccc(S(=O)(=O)[O-])cc1	1800 nM	9	16200 nM	
CCN1/C(=C/C=c2\s/c(=C\c3sc4ccccc4[n+]3CC)sc2=O)Oc2ccccc21.[I-]	> 1700 nM	<2	3400 nM	
CCN1/C(=C/C=c2\s/c(=C\c3sc4ccc5ccccc5c4[n+]3CC)n(CC)c2=O)Sc2ccc3ccccc3c21.Cc1ccc(S(=O)(=O)[O-])cc1	30 nM	217	6500 nM	
CCN1/C(=C/C=C/c2sc3ccccc3[n+]2CC)Sc2ccccc21.[I-]	60 nM	20	1200 nM	
CCn1c(=O)/c(=C2\Sc3ccccc3N2C)s/c1=C\c1sc2ccccc2[n+]1CC.[I-]	50 nM	346	17300 nM	T/C [15]: 180%; IC50 ([1]; mia paca-2): 50 nM; IC50 [4]: 20 nM; T/C [16]: 168%; IC50 ([7]; mcf7): 90 nM; IC50 ([9]; bladder carcinoma cell): 70 nM
CCN1/C(=C/C=c2/c(=O)n(CC)/c(=C/c3sc4c5ccccc5ccc4[n+]3CC)n2CC)Sc2ccc3ccccc3c21.[I-]	100 nM	8	800 nM	
